Assay results published in patent US6566376B1, “Diphenyl-piperidine derivative” (AstraZeneca UK Limited, priority 1999, dated 2003).
Structures can show the parent of a compound that is named as a salt.

SMILES	melting point [°C]
O=Cc1cn(Cc2ccc(Cl)cc2)nc1CN1CCC(c2ccccc2)(c2ccccc2)CC1	133 to 134
OCc1cn(Cc2ccc(Cl)cc2)nc1CN1CCC(c2ccccc2)(c2ccccc2)CC1	104 to 105
Clc1ccc(Cn2nncc2CN2CCC(c3ccccc3)(c3ccccc3)CC2)cc1	195
Clc1ccc(Cn2cc(CN3CCC(c4ccccc4)(c4ccccc4)CC3)nn2)cc1	148
O=C(O)c1c(CN2CCC(c3ccccc3)(c3ccccc3)CC2)ncn1Cc1ccc(Cl)cc1	135 to 136
Clc1cccc(Cn2ccc(CN3CCC(c4ccccc4)(c4ccccc4)CC3)n2)c1	136 to 137
NC(=O)c1c(CN2CCC(c3ccccc3)(c3ccccc3)CC2)ncn1Cc1ccc(Cl)cc1	227 to 228
Cc1ccc(Cn2ccc(CN3CCC(c4ccccc4)(c4ccccc4)CC3)n2)cc1C	139 to 140
Fc1ccc(Cn2ccc(CN3CCC(c4ccccc4)(c4ccccc4)CC3)n2)cc1 (as salt: hydrochloride)	192 to 193
COc1cc(Cl)ccc1Cn1ccc(CN2CCC(c3ccccc3)(c3ccccc3)CC2)n1 (as salt: hydrochloride)	73 to 74
Oc1cc(Cl)ccc1Cn1ccc(CN2CCC(c3ccccc3)(c3ccccc3)CC2)n1 (as salt: hydrochloride)	260 to 261
CN(C)C(=O)COc1cc(Cl)ccc1Cn1ccc(CN2CCC(c3ccccc3)(c3ccccc3)CC2)n1 (as salt: hydrochloride)	181 to 182
Clc1ccc(Cn2cnc(CN3CCC(c4ccccc4)(c4ccccc4)CC3)c2)cc1 (as salt: hydrochloride)	254 to 255
Clc1ccc(Cc2ncc(CN3CCC(c4ccccc4)(c4ccccc4)CC3)[nH]2)cc1 (as salt: hydrochloride)	186 to 187
Cc1ccc(Cn2ccc(CN3CCC(c4ccccc4)(c4ccccc4)CC3)n2)cc1 (as salt: hydrochloride)	147 to 148
FC(F)(F)c1ccc(Cn2ccc(CN3CCC(c4ccccc4)(c4ccccc4)CC3)n2)cc1 (as salt: hydrochloride)	66 to 67
Clc1ccc(Cn2ccc(CN3CCC(c4ccccc4)(c4ccccc4)CC3)n2)c(Cl)c1 (as salt: hydrochloride)	101 to 102
Clc1ccc(Cn2ccc(CN3CCC(c4ccccc4)(c4ccccc4)CC3)n2)cc1Cl (as salt: hydrochloride)	191 to 192
Clc1ccc(Cn2ccc(CN3CCC(c4ccccc4)(c4ccccc4)CC3)n2)cc1 (as salt: hydrochloride)	137 to 138
O=C(c1cnc(Cc2ccc(Cl)cc2)[nH]1)N1CCC(c2ccccc2)(c2ccccc2)CC1 [Example 23, [2-(4-Chlorobenzyl)-1H-imidazol-5-yl](4,4-diphenyl-1-piperidinyl)methanone]	105 to 106
